These are literature values, as cited in patent US12090144B2, “Photocurable hydrogel loaded with VH298-modified exosome and method of preparation and use thereof” (Chinese PLA General Hospital, priority 2022, dated 2024).

The conditions of this data set: background statement.

On to `Cc1ncsc1-c1ccc(CNC(=O)[C@@H]2C[C@@H](O)CN2C(=O)[C@@H](NC(=O)C2(C#N)CC2)C(C)(C)C)cc1` [VH298], for which the water solubility entry is reported as “poor water solubility”.
